The record followed here is US8133880B2, “Purine derivatives and methods of use thereof” (Inotek Pharmaceuticals Corporation, priority 2004, dated 2012).

Common to all, as to type: in vivo
Assay [1] has as its system BALB/c mice. In words: LPS-induced chemokine and cytokine response (serum TNF-α, MIP-1α by ELISA). Particulars: for Serum TNF-α mean / Serum MIP-1α mean: serum ninety minutes after LPS. The protocol: Male BALB/c mice were intraperitoneally administered Compound 54 (at a dose of either 0.3 mg/kg or 1.0 mg/kg) over a 30-minute period. Lipopolysaccharide (LPS) was then administered intraperitoneally at a dose of 1 mg/kg. Ninety minutes after LPS administration, serum was collected and the levels of MIP-1α and TNF-α were analyzed using specific ELISA.
Male BALB/c mice were intraperitoneally administered Compound 34 (at a dose of 0.03 mg/kg or 0.1 mg/kg) over a 30 minute period. Lipopolysaccharide (LPS) was then administered intraperitoneally at a dose of 1 mg/kg. Ninety minutes after LPS administration, serum was collected and the levels of MIP-1α and TNF-α were analyzed using specific ELISA.

Assay [2] has as its system BALB/c mice. The experiment in a line: Asthma-associated inflammation: OVA aerosol exposure and bronchioalveolar lavage. The protocol: Four-week old male, viral-antibody-free BALB/c mice (Jackson Laboratory, Bar Harbor, Me.) were intraperitoneally immunized with 10 μg ovalbumin (“OVA,” Grade III, Sigma Chemical Co., St. Louis, Mo.) and 1 mg alum (diluted from 2% Alhydrogel; Accurate Sci. Corp., Westbury, N.Y.) in 0.5 mL phosphate-buffered saline (“PBS”) on days 0 and 7. Control mice received 1 mg alum in PBS solution on days 0 and 7.
On day 14, both immunized mice and control mice received a single aerosol exposure to 3% OVA (in PBS) for 30 minutes, followed by intraperitoneal administration of Compound 34 (5 μg per mouse in 0.2 mL buffer solution). About 18 hours after treatment, the mice were sacrificed and bronchioalveolar lavage (“BAL”) was performed on their lungs. The fluid obtained from the mice via the BAL procedure was analyzed and the inflammatory cell counts and level of inflammatory mediators in the fluid samples was measured as described in Virag et al., Med. Sci. Monit. 10:BR77-83 (2004).
On day 14, both immunized mice and control mice received a single aerosol exposure to 3% OVA (in PBS) for 30 minutes, followed by intraperitoneal administration of Compound 24 (5 μg per mouse in 0.2 mL buffer solution). About 18 hours after treatment, the mice were sacrificed and bronchioalveolar lavage (“BAL”) was performed on their lungs. The fluid obtained from the mice via the BAL procedure was analyzed and the inflammatory cell counts and level of inflammatory mediators in the fluid samples was measured as described in Virag et al., Med. Sci. Monit. 10:BR77-83 (2004).

A further assay has as its system mice. The experiment in a line: TPA-induced dermatitis of the ear (ear weight, MPO). Particulars: for Right ear (treated) Mean Weight: 10 μL topical, biopsy six hours after application, normal saline 20.2; for Right ear (treated) MPO: ear biopsy six hours after application, normal saline 18.4; for Difference (right minus left ear weight): normal saline 10.1; for Difference (MPO right minus left ear): normal saline 16.8; for Left ear (untreated) MPO / Left ear (untreated) Mean Weight: left ear DMSO vehicle only. The protocol: Dermatitis was induced in the right ear of unanesthetized mice via the topical application of 12-O-tetradecanoylphorbol-13-acetate (TPA) (10 μL, 1% in DMSO) on both the inner and outer surfaces of the right ear. The left ear of each mouse had only vehicle (DMSO, 10 μL) topically applied on both the inner and outer surfaces.
Immediately after application of TPA, the mice were topically treated on the inner and outer surfaces of their right ear only with either: (1) Compound 43 (10 μL, 0.1% in normal saline), (2) Compound 43 (10 μL, 0.3% in normal saline), or (3) normal saline (10 μL).
Six hours after the application of Compound 43 or normal saline, the animals were euthanized using CO2 asphyxiation and a ¼ inch biopsy of both the left and right ear was taken and weighed. The biopsy samples were then analyzed for myloperoxidase (MPO) activity as a marker of neutrophil infiltration using standard methods.

In the next assay the test system is Swiss Webster mice. The experiment in a line: Dextran sodium sulfate-induced colitis. Particulars: for visual score (1-4) of colon damage: 1 = no damage, 4 = extensive damage, vehicle 2; for Colon Length: twice daily by gavage, seven days with DSS, vehicle 3.97; for MDA / MPO: colon biopsy; for MDA: vehicle 8.7; for MPO: vehicle 209. The protocol: Colitis was induced in Swiss Webster mice by administration of dextran sodium sulfate (DSS) (5%, dissolved in distilled water, molecular weight 30-40 kDa) ad libitum for a total period of seven days. During this seven-day period, and concomitant with the administration of DSS, the mice were separately administered Compound 54 twice daily by gavage at a total daily dose of 0.1 mg/kg/day, 0.3 mg/kg/day or 1 mg/kg/day. At the end of the seventh day of administration of both DSS and Compound 54, the mice were euthanized and their colon was removed, measured, visually analyzed and colon biopsy samples were analyzed for malondialdehyde (MDA) and myeloperoxidase (MPO) levels.

Where [3] appears, read: 5 μg per mouse i.p., BAL fluid about 18 hours after treatment.
Setting [4] is: animals given 0.1% on the right ear.
Where [5] appears, read: animals given 0.3% on the right ear.

Consider `CCNC(=O)[C@H]1O[C@@H](n2cnc3c(N)nc(N/N=C/C4CCC=CO4)nc32)[C@H](O)[C@@H]1O` (mixture of isomers) [Compound 34], for which the “Serum TNF-α mean” value in the assay on BALB/c mice [1] (0.03 mg/kg i.p. before LPS 1 mg/kg i.p., LPS alone 1949) turned out to be 814 pg/mL. Also, the “Serum MIP-1α mean” value with BALB/c mice [1] (0.03 mg/kg i.p. before LPS 1 mg/kg i.p., LPS alone 2544) stood at 1182 pg/mL. Also, the “LPS-induced increase in TNF-α and MIP-1α” value in the assay with BALB/c mice [1] (0.03 mg/kg or 0.1 mg/kg i.p.) is given as “dose-dependently reduces”. Besides, the “Serum TNF-α mean” value in the assay on BALB/c mice [1] (0.1 mg/kg i.p. before LPS 1 mg/kg i.p., LPS alone 1949) was found to be 552 pg/mL. The “Serum MIP-1α mean” value with BALB/c mice [1] (0.1 mg/kg i.p. before LPS 1 mg/kg i.p., LPS alone 2544) was 981 pg/mL. In addition, the “inflammatory cell infiltration into the BAL fluid, reduction” value with BALB/c mice [2] (5 μg per mouse i.p. after OVA aerosol, BAL about 18 hours after treatment, treated vs. control animals, p<0.01) amounted to 70±19%. Also, in the assay on BALB/c mice [2] (setting [3]), the “MIP-1α levels, reduction relative to control” value is 74%; the “TNF-α levels, reduction relative to control” value came to 30%; the “white blood cell counts, reduction relative to control” value came out at 70%. The MIP-1α in the assay on BALB/c mice [2] (BAL fluid, 5 μg per mouse i.p., untreated mice 58 ± 19) came out at 15 ± 5 pg/mL. Moreover, in the assay with BALB/c mice [2] (BAL fluid, 5 μg per mouse i.p., untreated mice 81 ± 27), the TNF-α is on record as 56 ± 18 pg/mL.
For the compound `CCNC(=O)[C@H]1O[C@@H](n2cnc3c(N)nc(N/N=C/[C@H]4CCC=CO4)nc32)[C@H](O)[C@@H]1O` [Compound 43], in the assay with mice (0.1% and 0.3% topical, compared to TPA and normal saline), the “MPO levels in the treated right ears” value is recorded as “decreased”. Besides, in the assay on mice (0.1% and 0.3% topical, compared to animals receiving normal saline only), the “elevated weight in the right ear caused by the TPA-induced dermatitis” value is on record as “reduced in a dose-dependent fashion”. For the same compound, the “Right ear (treated) Mean Weight” value in the assay on mice (0.1% in normal saline) was 17.7 mg. Moreover, in the assay with mice (0.1% topical), the “Right ear (treated) MPO” value came out at 1.04 ug/sample, the “Difference (right minus left ear weight)” value was found to be 5.3 mg and the “Difference (MPO right minus left ear)” value is 0.67. Besides, the “Right ear (treated) Mean Weight” value in the assay on mice (0.3% in normal saline) amounted to 13.6 mg. In the assay on mice (0.3% topical), the “Right ear (treated) MPO” value worked out at 3.34 ug/sample, the “Difference (right minus left ear weight)” value turned out to be 0.1 mg and the “Difference (MPO right minus left ear)” value is recorded as 1.65. Besides, in the assay with mice (setting [4]), the “Left ear (untreated) MPO” value was 0.37 ug/sample and the “Left ear (untreated) Mean Weight” value amounted to 12.4 mg. For the same compound, in the assay with mice (setting [5]), the “Left ear (untreated) MPO” value is 1.69 ug/sample and the “Left ear (untreated) Mean Weight” value turned out to be 13.5 mg.
Turning to `CNC(=O)[C@H]1O[C@@H](n2cnc3c(NC)nc(C#N)nc32)[C@H](O)[C@@H]1O` [Compound 54], the “Serum MIP-1α mean” value with BALB/c mice [1] (0.3 mg/kg i.p. before LPS 1 mg/kg i.p., LPS alone 4150) came out at 4298 pg/mL; with BALB/c mice [1] (1.0 mg/kg i.p. before LPS 1 mg/kg i.p., LPS alone 4150), 3906 pg/mL. For the same compound, the “Serum TNF-α mean” value in the assay on BALB/c mice [1] (0.3 mg/kg i.p. before LPS 1 mg/kg i.p., LPS alone 9741) turned out to be 5733 pg/mL; with BALB/c mice [1] (1.0 mg/kg i.p. before LPS 1 mg/kg i.p., LPS alone 9741) it was 3727 pg/mL. The “LPS-induced increase in TNF-α and MIP-1α” value in the assay on BALB/c mice [1] (0.3 mg/kg or 1.0 mg/kg i.p.) is given as “dose-dependently reduces”. Further, the colon shortening entry in the assay on Swiss Webster mice (0.1, 0.3 or 1 mg/kg/day, compared to animals treated with vehicle) was “protected against colon shortening”. Also, the “levels of MDA and MPO” value in the assay with Swiss Webster mice (0.1, 0.3 or 1 mg/kg/day, dose-dependent, compared to animals treated with vehicle) is “lowered”. Further, the “visual score (1-4) of colon damage” value in the assay with Swiss Webster mice (Dose 0.1 mg/ml) is 1.5; in the assay on Swiss Webster mice (Dose 0.3 mg/ml) it was 1.2; in the assay on Swiss Webster mice (Dose 1 mg/ml), 1.4. For the same compound, the “Colon Length” value in the assay on Swiss Webster mice (Dose 0.1 mg/ml) is recorded as 4.95 cm; in the assay with Swiss Webster mice (Dose 0.3 mg/ml) it was 5.51 cm; with Swiss Webster mice (Dose 1 mg/ml), 5.87 cm. In addition, the MDA in the assay on Swiss Webster mice (Dose 0.1 mg/ml) is 7.4 nmol/mg protein; in the assay with Swiss Webster mice (Dose 0.3 mg/ml) it was 7.4 nmol/mg protein; in the assay on Swiss Webster mice (Dose 1 mg/ml) it was 4.4 nmol/mg protein. The figures for the MPO with Swiss Webster mice (Dose 0.1 mg/ml), in the assay on Swiss Webster mice (Dose 0.3 mg/ml) and in the assay on Swiss Webster mice (Dose 1 mg/ml) were 345 mμ/mg protein, 138 mμ/mg protein and 30 mμ/mg protein, respectively.
